Data from patent US20200109429A1, “Methods and Systems for Cell-Free Biodiscovery of Natural Products” (Synvitrobio, Inc., priority 2017, published 2020).
Values after ≈ are worked out from the molar mass of the structure shown. Where two headings read alike, the source gives them in different places. Where a SMILES comes first, the peptide text is derived from it. Bridges are numbered along the chain shown (N, C = ends).

Key:
[1] = 121 C for 10 min heat step; cited from earlier work
[2] = system: Salmonella; settings: mouse models; cited from earlier work
[3] = system: E. coli; settings: cited from earlier work
[4] = target: T1, E. coli RNA polymerase (Escherichia coli, UniProt P0A8T7+P0A8V2); assay type: biochemical; design: endogenous in cells; host or cells: E. coli cell-free lysate (extract eZS6 or eAC15, prepared per Sun et al. 2013); settings: lasso cluster co-expressed with sigma70 GFP reporter in E. coli cell-free system
T1 sequence (P0A7Z4 whole entry): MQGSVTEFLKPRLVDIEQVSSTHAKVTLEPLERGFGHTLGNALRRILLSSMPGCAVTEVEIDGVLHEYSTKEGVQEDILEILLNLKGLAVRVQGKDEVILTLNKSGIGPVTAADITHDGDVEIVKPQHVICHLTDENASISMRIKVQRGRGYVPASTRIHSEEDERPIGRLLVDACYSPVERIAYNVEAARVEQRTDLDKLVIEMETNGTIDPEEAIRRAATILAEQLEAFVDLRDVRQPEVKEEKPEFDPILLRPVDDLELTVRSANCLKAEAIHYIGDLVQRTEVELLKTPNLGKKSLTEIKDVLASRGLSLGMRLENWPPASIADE
T1 sequence (P0A8V2 whole entry): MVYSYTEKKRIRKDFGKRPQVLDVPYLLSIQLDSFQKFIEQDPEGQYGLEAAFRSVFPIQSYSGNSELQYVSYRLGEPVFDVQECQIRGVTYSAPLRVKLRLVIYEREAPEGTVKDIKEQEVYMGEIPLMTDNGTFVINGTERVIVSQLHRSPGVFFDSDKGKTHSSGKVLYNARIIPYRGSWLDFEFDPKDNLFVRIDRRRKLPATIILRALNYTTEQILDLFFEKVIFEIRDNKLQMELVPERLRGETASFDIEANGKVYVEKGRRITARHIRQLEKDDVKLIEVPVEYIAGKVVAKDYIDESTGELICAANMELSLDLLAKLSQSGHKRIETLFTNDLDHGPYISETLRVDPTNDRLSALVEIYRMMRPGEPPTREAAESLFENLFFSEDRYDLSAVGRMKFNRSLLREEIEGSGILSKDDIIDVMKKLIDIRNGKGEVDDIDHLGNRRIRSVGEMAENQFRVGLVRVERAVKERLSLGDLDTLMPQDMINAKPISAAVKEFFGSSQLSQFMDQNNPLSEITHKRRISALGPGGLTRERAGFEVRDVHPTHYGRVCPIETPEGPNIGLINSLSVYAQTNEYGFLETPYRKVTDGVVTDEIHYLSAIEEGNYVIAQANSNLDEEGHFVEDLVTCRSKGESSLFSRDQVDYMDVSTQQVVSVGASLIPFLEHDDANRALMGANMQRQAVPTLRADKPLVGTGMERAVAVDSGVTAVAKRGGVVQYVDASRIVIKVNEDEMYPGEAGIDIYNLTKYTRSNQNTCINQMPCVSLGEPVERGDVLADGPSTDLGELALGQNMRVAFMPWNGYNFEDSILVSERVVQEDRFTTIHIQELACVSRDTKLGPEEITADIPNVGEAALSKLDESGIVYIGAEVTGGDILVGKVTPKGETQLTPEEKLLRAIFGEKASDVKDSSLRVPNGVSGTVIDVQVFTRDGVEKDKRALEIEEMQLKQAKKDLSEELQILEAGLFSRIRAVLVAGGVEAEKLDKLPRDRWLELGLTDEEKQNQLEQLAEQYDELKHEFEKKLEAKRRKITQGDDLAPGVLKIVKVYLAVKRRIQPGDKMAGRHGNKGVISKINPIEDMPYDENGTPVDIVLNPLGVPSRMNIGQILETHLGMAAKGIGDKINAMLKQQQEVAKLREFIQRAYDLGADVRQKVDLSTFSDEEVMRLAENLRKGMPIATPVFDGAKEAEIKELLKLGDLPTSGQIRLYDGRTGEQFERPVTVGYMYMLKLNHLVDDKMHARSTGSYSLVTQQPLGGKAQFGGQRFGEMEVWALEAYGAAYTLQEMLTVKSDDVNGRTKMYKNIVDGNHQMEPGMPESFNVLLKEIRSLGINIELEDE
T1 sequence (P00579 whole entry, further chain): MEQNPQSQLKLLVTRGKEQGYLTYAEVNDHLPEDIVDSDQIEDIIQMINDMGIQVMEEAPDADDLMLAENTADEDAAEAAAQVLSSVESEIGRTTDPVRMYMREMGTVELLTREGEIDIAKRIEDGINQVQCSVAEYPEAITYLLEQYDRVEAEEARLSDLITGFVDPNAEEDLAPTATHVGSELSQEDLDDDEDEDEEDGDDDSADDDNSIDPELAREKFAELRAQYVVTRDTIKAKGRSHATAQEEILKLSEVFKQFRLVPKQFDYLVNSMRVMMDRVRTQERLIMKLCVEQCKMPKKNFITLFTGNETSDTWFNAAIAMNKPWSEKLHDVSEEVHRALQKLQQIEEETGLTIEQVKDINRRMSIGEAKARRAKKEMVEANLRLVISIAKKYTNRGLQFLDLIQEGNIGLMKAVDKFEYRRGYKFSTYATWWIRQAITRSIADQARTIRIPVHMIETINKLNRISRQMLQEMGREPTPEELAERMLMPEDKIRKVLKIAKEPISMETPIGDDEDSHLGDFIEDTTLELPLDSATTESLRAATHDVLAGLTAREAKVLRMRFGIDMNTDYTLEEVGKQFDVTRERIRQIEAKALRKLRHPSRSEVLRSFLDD
T1 sequence (P0A8T7 whole entry): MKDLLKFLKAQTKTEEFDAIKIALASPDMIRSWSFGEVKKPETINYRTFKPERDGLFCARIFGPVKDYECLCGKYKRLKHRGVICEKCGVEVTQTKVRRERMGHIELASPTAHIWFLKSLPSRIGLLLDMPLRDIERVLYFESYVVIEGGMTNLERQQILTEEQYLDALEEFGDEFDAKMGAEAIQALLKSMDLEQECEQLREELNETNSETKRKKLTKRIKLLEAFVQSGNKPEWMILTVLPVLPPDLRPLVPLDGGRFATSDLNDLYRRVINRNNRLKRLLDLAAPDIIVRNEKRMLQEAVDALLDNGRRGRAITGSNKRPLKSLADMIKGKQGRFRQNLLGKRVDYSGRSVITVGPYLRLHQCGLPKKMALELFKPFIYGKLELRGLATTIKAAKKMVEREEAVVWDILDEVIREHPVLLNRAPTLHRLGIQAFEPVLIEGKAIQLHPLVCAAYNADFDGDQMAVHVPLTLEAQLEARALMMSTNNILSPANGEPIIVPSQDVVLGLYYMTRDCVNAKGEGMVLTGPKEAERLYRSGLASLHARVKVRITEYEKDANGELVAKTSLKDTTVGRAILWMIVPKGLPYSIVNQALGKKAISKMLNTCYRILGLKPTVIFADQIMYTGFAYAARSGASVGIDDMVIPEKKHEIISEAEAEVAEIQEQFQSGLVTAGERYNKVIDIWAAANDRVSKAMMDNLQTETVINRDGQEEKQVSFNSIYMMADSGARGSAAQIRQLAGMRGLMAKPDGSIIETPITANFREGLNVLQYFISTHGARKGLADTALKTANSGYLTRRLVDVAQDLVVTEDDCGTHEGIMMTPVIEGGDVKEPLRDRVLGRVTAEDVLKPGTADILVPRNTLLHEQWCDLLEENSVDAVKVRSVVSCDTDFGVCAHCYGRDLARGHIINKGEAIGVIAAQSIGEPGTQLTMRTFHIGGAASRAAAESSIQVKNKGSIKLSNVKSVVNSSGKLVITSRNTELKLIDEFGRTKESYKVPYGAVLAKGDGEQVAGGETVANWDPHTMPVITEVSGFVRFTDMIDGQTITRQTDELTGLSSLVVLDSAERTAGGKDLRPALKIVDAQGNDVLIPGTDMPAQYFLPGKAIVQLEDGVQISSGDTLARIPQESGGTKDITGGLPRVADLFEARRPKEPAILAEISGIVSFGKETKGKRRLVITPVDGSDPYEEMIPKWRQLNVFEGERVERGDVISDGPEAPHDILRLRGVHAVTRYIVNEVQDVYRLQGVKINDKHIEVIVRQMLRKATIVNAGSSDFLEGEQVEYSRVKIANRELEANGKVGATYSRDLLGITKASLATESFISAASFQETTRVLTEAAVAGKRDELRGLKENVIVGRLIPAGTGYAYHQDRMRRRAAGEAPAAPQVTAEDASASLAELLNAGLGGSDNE
T1 sequence (P0A800 whole entry, further chain): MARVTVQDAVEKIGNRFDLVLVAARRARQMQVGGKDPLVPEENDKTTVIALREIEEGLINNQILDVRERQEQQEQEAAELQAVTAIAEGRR
Description: All reactions contain 40019 in plasmid form at 2.66 nM, and the reaction is done in E. coli extract “eZS6” at 25% lysate, 75% buffer concentration, prepared as listed in (Sun et al., 2013) or “eAC15” at 30% lysate, 70% buffer concentration. GFP concentration was kept at 2 nM, and the other components kept at a total of 6 nM to control for competition affects.
These are run in a E. coli-based cell-free lysate system in different concentrations, as listed by nM concentrations described in the chart, with all reactions containing 4 nM sigma70-UTR1-GFP and 3.5 μM gamS to protect linear templates.
Our expression system incorporates these coding sequences individually with a sigma70 promoter, UTR and terminator. […] A GFP construct (40019 in linear) was assembled in the same way. Linear DNAs were generated either by PCR amplification from plasmid or the DNA assemblies themselves. We used 3.5 μM GamS to prevent template degradation in E. coli lysate. Reactions were run at 10 μl scale in a 384-well format. The reaction is done in E. coli extract “eZS6” at 25% lysate, 75% buffer concentration, prepared as listed in (Sun et al., 2013). Timecourses of GFP intensity were taken, and 12 hr endpoints were used to generate the heatmap. GFP intensity of lasso-cluster-containing reaction was normalized to their paired negative controls.
We expressed our GFP construct in the same reactions as our lasso constructs. GFP (4009 in linear) was expressed at 4 nM and the lasso cluster genes at 0.6 nM.

[5] = system: E. coli; assay type: cell-based; settings: purified microcin J25 added to cellular reactions, E. coli cell death
Description: (A) Cell-free assay of mccj25 activity. […] (B) Inhibition of E. coli in vivo growth by purified microcin J25. Data, final concentrations.
It is seen in FIG. 7B that adding purified microcin J25 to cellular reactions causes cell death with a MIC of 0.1 uM. If microcin J25 produced in cell-free systems is at high enough concentration, those skilled in the art will recognize that the MIC curve for killing live E. coli will be the similar. However, avoiding phage in the reaction is essential to ensure that the MIC is accurate and not caused by propogation of infecting phage carried over in a typical cell-free reaction that is contaminated with phage.

[6] = target: T1, E. coli RNA polymerase; settings: has been shown previously; cited from earlier work
[7] = assay type: in vitro ADME, E. coli
Description: Linear constructs were expressed in 10 μl cell free reactions with 2% flurotect (a tRNA carrying a BODIPY labelled lysine) and 8 nM DNA constructs for MBP-A or MBP (1065, 1066). 2 μl of these reactions were prepared in 20 μl sample buffer (50 mM bis-Tris, 2% SDS, 10% glycerol) and run on a 4-12% bis-tris PAGE gel (ThermoFisher Scientific) at 200V for 20 min.
To stabilize mcjA, the peptide can be tagged either on the N terminus or the C terminus as a fusion protein that provides a stable domain that prevents proteolysis of mcjA. A linker and/or targeting region can be added to remove the tag. In an example, we tag mcjA with a maltose binding protein (MBP), generating a construct 1065 (SEQ ID NO.: 19) and compare the expression of 1065 to a wildtype MBP, 1066 (SEQ ID NO.: 20). In a SDS-PAGE gel expressing both constructs in FIG. 18, the expressed fusion protein was stable and easily visualized on a gel.

Compound: CC[C@H](C)[C@H](NC(=O)CNC(=O)[C@@H](NC(=O)[C@H](Cc1ccccc1)NC(=O)[C@H](Cc1ccc(O)cc1)NC(=O)[C@@H]1CCC(=O)NCC(=O)NCC(=O)N[C@@H](C)C(=O)NCC(=O)N[C@@H](Cc2cnc[nH]2)C(=O)N[C@@H](C(C)C)C(=O)N2CCC[C@H]2C(=O)N1)C(C)C)C(=O)NCC(=O)N[C@H](C(=O)N1CCC[C@H]1C(=O)N[C@H](C(=O)N[C@@H](CO)C(=O)N[C@@H](Cc1ccccc1)C(=O)N[C@@H](Cc1ccc(O)cc1)C(=O)NCC(=O)O)[C@@H](C)CC)[C@@H](C)O [microcin J25] (GGAGHVPEYFVGIGTPISFYG-OH; lactam N-8)
- heat stability [1]: heat-stable

Compound: CC[C@H](C)[C@H](NC(=O)CNC(=O)[C@@H](NC(=O)[C@H](Cc1ccccc1)NC(=O)[C@H](Cc1ccc(O)cc1)NC(=O)[C@@H]1CCC(=O)NCC(=O)NCC(=O)N[C@@H](C)C(=O)NCC(=O)N[C@@H](Cc2c[nH]cn2)C(=O)N[C@@H](C(C)C)C(=O)N2CCC[C@H]2C(=O)N1)C(C)C)C(=O)NCC(=O)N[C@H](C(=O)N1CCC[C@H]1C(=O)N[C@H](C(=O)N[C@@H](CO)C(=O)N[C@@H](Cc1ccccc1)C(=O)N[C@@H](Cc1ccc(O)cc1)C(=O)NCC(=O)O)[C@@H](C)CC)[C@@H](C)O [microcin J25] (GGAGHVPEYFVGIGTPISFYG-OH; lactam N-8; C-terminus assumed)
- decrease in Salmonella infection [2]: 3 fold
- MIC [3]: 0.02 µg/mL (≈ 9.49 nM)
- knockdown of GFP expression / native RNA polymerase [4]: knocks down GFP expression
- knockdown of GFP expression / native RNA polymerase ([4]; listed as microcinJ25): functional knockdown
- MIC [5]: 0.1 µM (≈ 0.211 µg/mL)

Compound: caulosegnin
- RNA polymerase inhibitory activity [6]: not to have RNA polymerase inhibitory activity
- knockdown of GFP expression / native RNA polymerase [4]: no effect on GFP expression

Compound: klebsidin
- knockdown of GFP expression / native RNA polymerase [4]: functional knockdown

Compound: mcjA: peptide precursor (propeptide) of microcin J25 (MIKHFHFNKLSSGKKNNVPSPAKGVIQIKKSASQLTKGGAGHVPEYFVGIGTPISFYG; full-length; UniProt Q9X2V7 1-58, looked up)
- stability when expressed in E. coli cell-free systems [7]: known to degrade
